Values quoted from earlier work, collected in patent publication US20100136106A1, “Modified Release Famciclovir Compositions” (priority 2005, published 2010).
Read-outs that look alike come from different tables or passages of the source.

Assays:
[1] = for AUC(0-∞) / Cmax / Tmax: healthy male volunteers
[2] = 500 mg famciclovir t.i.d. for 7 days
[3] = not given; remark: listed apart in the source
[4] = 5 mg/kg radiolabeled penciclovir, 1-hour infusion
[5] = intravenous penciclovir
[6] = single 500 mg oral dose of radiolabeled famciclovir
viral DNA polymerase = conditions: competitively with deoxyguanine triphosphate
[7] = for metabolite, % of the dose in the urine: in vivo, po
[8] = for solubility in water: 25° C.
[9] = not given; remark: listed apart in the source
[10] = below 85% relative humidity
cytochrome P450 = conditions: human liver microsomes
[11] = 500 mg famciclovir single oral dose, patients with herpes zoster

For Nc1nc2c(ncn2CCC(CO)CO)c(=O)[nH]1 [penciclovir], the “dose proportionality of penciclovir concentrations” value ([1]; famciclovir dose range of 125 mg to 750 mg, single dose) is listed as “increased in proportion to dose”, the “AUC of penciclovir greater in patients with herpes zoster as compared to healthy volunteers” value (500 mg famciclovir oral) is listed as “approximately 35%” and the half-life (seven patients with herpes zoster) is listed as 180 ± 66 min. For the same molecule, the accumulation of penciclovir [2] was “no accumulation”, the “decrease of penciclovir Cmax with food” value ([3]; capsule formulation of famciclovir with food (approximately 910 Kcal and 26% fat)) was “approximately 50%” and the “share of the radioactivity excreted in the urine” value [4] was 91%. For the same molecule, the “dose excreted in urine” value ([4]; first 6 hours) was 83%, the “administered radioactivity recovered in urine” value ([4]; over 24 hours) was “Approximately 94%” and the “renal clearance as share of total plasma clearance” value [5] was 74.5±8.8%. The “share of the radioactivity excreted in the urine” value [6] was 82%.
For penciclovir triphosphate, the “inhibition of viral DNA polymerase” value (viral DNA polymerase) is listed as “inhibit viral DNA polymerase competitively”.
For CC(=O)OCC(CO)CCn1cnc2c(=O)[nH]c(N)nc21 (stereo not drawn) [monoacetylated penciclovir], the “metabolite, % of the dose in the urine” value [7] is given as < 0.5%.
In the case of CC(=O)OCC(CO)CCn1cnc2cnc(N)nc21 (stereo not drawn) [6-deoxy monoacetylated penciclovir], the “metabolite, % of the dose in the urine” value [7] is listed as < 0.5%.
For CC(=O)OCC(CCn1cnc2cnc(N)nc21)COC(C)=O [famciclovir, 2-[2-(2-amino-9H-purin-9-yl)ethyl]-1,3-propanediol diacetate], the solubility in acetone [8] is listed as “freely soluble”, the solubility in ethanol [8] is listed as “sparingly soluble” and the solubility in isopropanol [8] is listed as “sparingly soluble”. The solubility in methanol [8] was “freely soluble”, the solubility in water ([8]; initially) was > 25 % w/v and the “partition coefficient P” value ([9]; octanol/phosphate buffer (pH 7.4)) was 2.08. The “partition coefficient P” value ([9]; octanol/water (pH 4.8)) was 1.09, the hygroscopicity [10] was “not hygroscopic” and the “AUC(0-∞)” value ([1]; 125 mg single oral dose) was 2240 ng·h/mL. For the same molecule, the Cmax ([1]; 125 mg single oral dose) was 800 ng/mL, the Tmax ([1]; 125 mg single oral dose) was 54 min and the “AUC(0-∞)” value ([1]; 250 mg single oral dose) was 4480 ng·h/mL. The Cmax ([1]; 250 mg single oral dose) was 1600 ng/mL, the Tmax ([1]; 250 mg single oral dose) was 54 min and the “AUC(0-∞)” value ([1]; 500 mg single oral dose) was 8950 ng·h/mL. For the same molecule, the Cmax ([1]; 500 mg single oral dose) was 3300 ng/mL, the Tmax ([1]; 500 mg single oral dose) was 54 min and the “AUC (mean±SD)” value [11] was 12100 ± 1700 ng·h/mL. The “Cmax (mean±SD)” value [11] was 4000 ± 700 ng/mL, the “Tmax (mean±SD)” value [11] was 42 ± 12 min and the “decrease in Cmax” value ([3]; given 2 hours after a meal compared to 2 hours before a meal) was 18%. The “effect of food on absorption” value ([3]; regular doses) was “does not affect the extent of absorption”, the “role of cytochrome P450 in famciclovir metabolism” value (cytochrome P450) was “does not play an important role” and the “famciclovir detected in plasma or urine” value ([7]; oral administration of famciclovir) was “Little or no”. The “administered radiolabeled dose collected in urine” value ([6]; first 6 hours) was “Approximately 60%”, the “administered radioactivity recovered in feces” value ([6]; over 72 hours) was 27% and the “administered radioactivity recovered in urine” value ([6]; over 72 hours) was 73%.
For CC(=O)OCC(CCn1cnc2cnc(N)nc21)COC(C)=O [monohydrate], the solubility in water ([8]; monohydrate that precipitates) is listed as 2-3 % w/v.
In the case of Nc1ncc2ncn(CCC(CO)CO)c2n1 [6-deoxy penciclovir], the “metabolite, % of the dose in the urine” value [7] is given as 5%.
